Counter-ions that a name gives are not always drawn. Like-named read-outs stand apart in the source and are kept apart here.
Target: T1, β-catenin/BCL9 PPI (Homo sapiens, UniProt P35222)
T1 construct: Wild-type full-length β-catenin were cloned into a pET-28b vector carrying a C-terminal 6×histidine; made in house; host or cells: Escherichia coli BL21 DE3 (β-catenin); BCL9 peptide chemically synthesized
T1 sequence (P35222 1-781): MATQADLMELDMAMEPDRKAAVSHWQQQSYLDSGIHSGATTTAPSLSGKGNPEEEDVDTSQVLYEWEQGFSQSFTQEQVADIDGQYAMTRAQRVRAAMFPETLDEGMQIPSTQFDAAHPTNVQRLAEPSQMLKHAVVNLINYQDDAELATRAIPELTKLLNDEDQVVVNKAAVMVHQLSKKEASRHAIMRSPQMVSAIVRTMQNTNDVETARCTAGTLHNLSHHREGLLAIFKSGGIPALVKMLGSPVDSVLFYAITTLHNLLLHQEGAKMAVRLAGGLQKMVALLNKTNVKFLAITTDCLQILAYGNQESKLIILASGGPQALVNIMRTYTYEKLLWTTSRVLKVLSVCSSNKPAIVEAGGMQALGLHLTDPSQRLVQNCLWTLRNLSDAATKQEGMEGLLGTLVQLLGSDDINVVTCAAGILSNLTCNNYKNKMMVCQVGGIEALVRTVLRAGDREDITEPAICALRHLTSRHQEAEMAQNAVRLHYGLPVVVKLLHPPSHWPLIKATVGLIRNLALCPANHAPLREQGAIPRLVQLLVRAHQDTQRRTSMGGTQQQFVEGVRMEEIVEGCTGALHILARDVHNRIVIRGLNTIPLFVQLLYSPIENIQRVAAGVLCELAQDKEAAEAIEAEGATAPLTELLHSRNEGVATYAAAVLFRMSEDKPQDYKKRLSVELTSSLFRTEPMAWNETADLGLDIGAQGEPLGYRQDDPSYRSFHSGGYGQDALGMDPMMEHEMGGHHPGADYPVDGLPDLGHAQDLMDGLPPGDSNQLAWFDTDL
Experiment: AlphaScreen competitive inhibition assay of the β-catenin/BCL9 PPI
Assay type: binding
Settings: mean ± SD, triplicate, Ki derived from IC50 (Nikolovska-Coleska method)
Method: AlphaScreen competitive inhibition assays. For the competitive inhibition assays of the β-catenin/BCL9 PPI, the negative control (equivalent to 0% inhibition) refers to 5.0 nM of biotinylated BCL9, 40 nM of His6-tagged β-catenin, and 10 μg/mL of donor and acceptor beads in a final volume of 25 μL assay buffer, but no tested inhibitor present. The positive control (equivalent to 100% inhibition) refers to 5.0 nM of biotinylated BCL9 and 10 μg/mL of donor and acceptor beads in a final volume of 25 μL assay buffer.
For the β-catenin/BCL9 assay, 5 nM of biotinylated BCL9 and 40 nM of His6-tagged β-catenin were incubated in assay buffer at 4° C. for 30 min. Different concentrations of the tested inhibitor were added and incubated in 20 μL assay buffer at 4° C. for another 1 h. All of the above assay plates were covered and gently mixed on an orbital shaker. The donor and acceptor beads were then added to the plates to a final concentration of 10 μg/mL in 25 μL assay buffer. The mixture was incubated for 1 h at 4° C. before detection. The IC50 value was determined by nonlinear least-square analysis of GraphPad Prism 5.0. The Ki values were derived from the IC50 values using a method reported by Nikolovska-Coleska et al (Nikolovska-Coleska, Z.; Wang, R.; Fang, X.; Pan, H.; Tomita, Y.; Li, P.; Roller, P. P.; Krajewski, K.; Saito, N. G.; Stuckey, J. A.; Wang, S. Development and optimization of a binding assay for the XIAP BIR3 domain using fluorescence polarization. Anal. Biochem. 2004, 332, 261-273). The assays were conducted under the conditions required by Nikolovska-Coleska et al.'s equation for determining the Ki values. All of the experiments were performed in triplicate. The results were expressed as mean±standard deviation.

[1] = Example 1 compounds, experiment 3, read-out: Ki (μM ± SD) experiment 3
[2] = Example 1 compounds, experiment 4, read-out: Ki (μM ± SD) experiment 4
[3] = Example 2 compounds, experiment 1, read-out: Ki (μM ± SD) experiment 1
[4] = Example 2 compounds, experiment 2, read-out: Ki (μM ± SD) experiment 2
[5] = Example 1 compounds, experiment 1, read-out: Ki (μM ± SD) experiment 1
[6] = Example 1 compounds, experiment 2, read-out: Ki (μM ± SD) experiment 2

| Compound | Ki [1] [µM] | Ki [2] [µM] | Ki [3] [µM] | Ki [4] [µM] | also measured |
| --- | --- | --- | --- | --- | --- |
| CC(=O)Nc1cc(F)cc(C(=O)N2CCN(C(=O)c3ccc(O[C@H]4CCNC4)c(C4CCCCC4)c3)C(C(=O)NC3CCCCC3)C2)c1 (stereo partly drawn) [Compound 25, 4-(3-Acetamido-5-fluorobenzoyl)-N-cyclohexyl-1-(3-cyclohexyl-4-(((S)-pyrrolidin-3-yl)oxy)benzoyl) piperazine-2-carboxamide trifluoroacetate] | 390 ± 78 | > 1000 |  |  |  |
| CNCc1cn(-c2cc(F)cc(C(=O)N3CCN(C(=O)c4ccc(O[C@H]5CCNC5)c(C5CCCCC5)c4)CC3)c2)nn1 [Compound 32, (S)-(4-(3-Cyclohexyl-4-(pyrrolidin-3-yloxy)benzoyl)piperazin-1-yl) (3-fluoro-5-(4-((methylamino)methyl)-1H-1,2,3-triazol-1-yl)phenyl) methanone dihydrochloride] | > 1000 |  |  |  |  |
| NCc1cn(Cc2cc(F)cc(OC3CCN(C(=O)c4ccc(O[C@H]5CCNC5)c(C5CCCCC5)c4)CC3)c2)nn1 [Compound 3, (S)-(4-(3-((4-(aminomethyl)-1H-1,2,3-triazol-1-yl)methyl)-5-fluorophenoxy)piperidin-1-yl) (3-cyclohexyl-4-(pyrrolidin-3-yloxy)phenyl) methanone dihydrochloride] |  |  | 132 ± 9.82 | 124 ± 13.4 |  |
| NCc1cn(-c2cc(F)cc(C(=O)N3CCN(C(=O)c4ccc(O[C@H]5CCNC5)c(C5CCCCC5)c4)CC3)c2)nn1 [Compound 30, (S)-(4-(3-(4-(aminomethyl)-1H-1,2,3-triazol-1-yl)-5-fluorobenzoyl)piperazin-1-yl) (3-cyclohexyl-4-(pyrrolidin-3-yloxy)phenyl) methanone ditrifluoroacetate] |  |  |  |  | Ki [5]: 110 ± 15 µM; Ki [6]: 560 ± 71 µM |
| CC(=O)Nc1cc(F)cc(C(=O)N2CCN(C(=O)c3ccc(O[C@H]4CCNC4)c(C4CCCCC4)c3)C(C(=O)NCC3CCCCC3)C2)c1 (stereo partly drawn) [Compound 26, 4-(3-Acetamido-5-fluorobenzoyl)-1-(3-cyclohexyl-4-(((S)-pyrrolidin-3-yl)oxy)benzoyl)-N-(cyclohexylmethyl) piperazine-2-carboxamide trifluoroacetate] | 410 ± 56 | 770 ± 140 |  |  |  |
| NCc1cn(-c2cc(F)cc(C(=O)N3CCN(C(=O)c4ccc(O[C@H]5CCNC5)c(C5CCC(C(F)(F)F)CC5)c4)CC3)c2)nn1 (stereo partly drawn) [Compound 31, (S)-(4-(3-(4-(aminomethyl)-1H-1,2,3-triazol-1-yl)-5-fluorobenzoyl)piperazin-1-yl) (4-(pyrrolidin-3-yloxy)-3-(4-(trifluoromethyl)cyclohexyl)phenyl) methanone ditrifluoroacetate] |  |  |  |  | Ki [5]: > 350 µM; Ki [6]: 610 ± 91 µM |
| CC(C)(CN)C(=O)NCc1cc(F)cc(OC2CCN(C(=O)c3ccc(O[C@H]4CCNC4)c(C4CCCCC4)c3)CC2)c1 [Compound 8, (S)-3-amino-N-(3-((1-(3-cyclohexyl-4-(pyrrolidin-3-yloxy)benzoyl)piperidin-4-yl)oxy)-5-fluorobenzyl)-2,2-dimethylpropanamide dihydrochloride] |  |  | 162 ± 19.6 | 162 ± 17.4 |  |
| CCNC(=O)C1CN(C(=O)c2cc(F)cc(NC(C)=O)c2)CCN1C(=O)c1ccc(O[C@H]2CCNC2)c(C2CCCCC2)c1 (stereo partly drawn) [Compound 19, 4-(3-Acetamido-5-fluorobenzoyl)-1-(3-cyclohexyl-4-(((S)-pyrrolidin-3-yl)oxy)benzoyl)-N-ethylpiperazine-2-carboxamide trifluoroacetate] | 110 ± 16 | 240 ± 27 |  |  |  |
| NCCC(=O)NCc1cc(F)cc(OC2CCN(C(=O)c3ccc(O[C@H]4CCNC4)c(C4CCCCC4)c3)CC2)c1 [Compound 7, 3-Amino-N-(3-((1-(3-cyclohexyl-4-(pyrrolidin-3-yloxy)benzoyl)piperidin-4-yl)oxy)-5-fluorobenzyl) propanamide dihydrochloride] |  |  | 84.7 ± 11.8 | 125 ± 13.2 |  |
| CC(=O)Nc1cc(F)cc(C(=O)N2CCN(C(=O)c3ccc(O[C@H]4CCNC4)c(C4CCCCC4)c3)C(C(=O)N(C)Cc3ccccc3)C2)c1 (stereo partly drawn) [Compound 29, 4-(3-Acetamido-5-fluorobenzoyl)-N-benzyl-1-(3-cyclohexyl-4-(((S)-pyrrolidin-3-yl)oxy)benzoyl)-N-methylpiperazine-2-carboxamide trifluoroacetate] | 560 ± 120 | 740 ± 150 |  |  |  |
| CCN(C)C(=O)C1CN(C(=O)c2cc(F)cc(NC(C)=O)c2)CCN1C(=O)c1ccc(O[C@H]2CCNC2)c(C2CCCCC2)c1 (stereo partly drawn) [Compound 20, 4-(3-Acetamido-5-fluorobenzoyl)-1-(3-cyclohexyl-4-(((S)-pyrrolidin-3-yl)oxy)benzoyl)-N-ethyl-N-methylpiperazine-2-carboxamide trifluoroacetate] | 190 ± 18 | 170 ± 29 |  |  |  |
| NCCC(=O)Nc1cc(F)cc(OC2CCN(C(=O)c3ccc(OC4CCNC4)c(C4CCCCC4)c3)CC2)c1 (centres unmarked) [Compound 5, 3-amino-N-(3-((1-(3-cyclohexyl-4-(pyrrolidin-3-yloxy)benzoyl)piperidin-4-yl)oxy)-5-fluorophenyl)propanamide dihydrochloride] |  |  | 24.4 ± 3.18 | 25.9 ± 2.45 |  |
| NCCCC(=O)Nc1cc(F)cc(OC2CCN(C(=O)c3ccc(OC4CCNC4)c(C4CCCCC4)c3)CC2)c1 (centres unmarked) [Compound 6, 4-amino-N-(3-((1-(3-cyclohexyl-4-(pyrrolidin-3-yloxy)benzoyl)piperidin-4-yl)oxy)-5-fluorophenyl)butanamide dihydrochloride] |  |  | 56.9 ± 8.34 | 24.2 ± 2.7 |  |
| CC(=O)Nc1cc(F)cc(C(=O)N2CCN(C(=O)c3ccc(O[C@H]4CCNC4)c(C4CCCCC4)c3)C(C(=O)NCC(C)C)C2)c1 (stereo partly drawn) [Compound 23, 4-(3-Acetamido-5-fluorobenzoyl)-1-(3-cyclohexyl-4-(((S)-pyrrolidin-3-yl)oxy)benzoyl)-N-isobutylpiperazine-2-carboxamide trifluoroacetate] | > 1000 | > 1000 |  |  |  |
| CC(=O)Nc1cc(F)cc(C(=O)N2CCN(C(=O)c3ccc(O[C@H]4CCNC4)c(C4CCCCC4)c3)C(C(=O)Nc3ccccc3)C2)c1 (stereo partly drawn) [Compound 27, 4-(3-Acetamido-5-fluorobenzoyl)-1-(3-cyclohexyl-4-(((S)-pyrrolidin-3-yl)oxy)benzoyl)-N-phenylpiperazine-2-carboxamide trifluoroacetate] | 130 ± 22 | 580 ± 83 |  |  |  |
| CN(C)Cc1cn(Cc2cc(F)cc(OC3CCN(C(=O)c4ccc(O[C@H]5CCNC5)c(C5CCCCC5)c4)CC3)c2)nn1 [Compound 4, (S)-(3-cyclohexyl-4-(pyrrolidin-3-yloxy)phenyl) (4-(3-((4-((dimethylamino)methyl)-1H-1,2,3-triazol-1-yl)methyl)-5-fluorophenoxy)piperidin-1-yl) methanone dihydrochloride] |  |  | 41.4 ± 4.33 |  |  |
| O=C(c1ccc(O[C@H]2CCNC2)c(C2CCCCC2)c1)N1CCC(Oc2cc(F)cc(N3CCNCC3)c2)CC1 [Compound 1, (S)-(3-cyclohexyl-4-(pyrrolidin-3-yloxy)phenyl) (4-(3-fluoro-5-(piperazin-1-yl)phenoxy)piperidin-1-yl) methanone dihydrochloride] |  |  | 12.3 ± 1.74 | 25.4 ± 2.43 |  |

Reference: patent publication US12600710B2, “Beta-catenin and b-cell lymphoma 9 (BCL9) inhibitors” (H. LEE MOFFITT CANCER CENTER AND RESEARCH INSTITUTE, INC., priority 2018, dated 2026)
